Measurements as given in patent US20190218531A1 (priority 2018, published 2019).

Test system: B. subtilis 3610
Assay type: cell-based, Bacillus subtilis

Structure (SMILES) | effect on inhibition of B. subtilis growth in co-culture with S. elongatus
O=S(O)(O)=S [thiosulfate] | mitigated
CN(C)C(=O)Nc1ccc(Cl)c(Cl)c1 [DCMU, 3-(3,4-dichlorophenyl)-1,1-dimethylurea] | mitigated
